Experiments:
Assay type in all cases: cell-based
HOP-62 = experiment: NCI 60 antitumor screening (single dose); conditions: Homo sapiens; HOP-62 (non-small cell lung cancer), single dose 10 μM; read-out: Growth inhibition percentage (GI %)
Experimental: (§1) Initially, the anticancer effects of target compounds have been assessed at a single (10 μM) dose. The obtained data have been reported as mean-graph of the percent growth (G%) of the treated cancer cells. Percentage growth inhibition (GI%) is calculated (100 − G%) and pronounced in Table 1. […] Target compounds in series (III) with manipulated linkers disclosed lower potency. Superiorly, eight s-triazine derivatives from the three series (6a, 6c, 6d, 7a, 7g, 7i, 7l, and 8b) have shown potent broad-spectrum anticancer activity against most the examined cell lines, whereas most of the remaining triazine derivatives, 20 derivatives, have exerted selective anti-proliferative actions towards certain cancer cell lines (Supplementary).
(§2) The antitumor screening was performed for 60 human cancer cell lines under the protocol of NCI (www.dtp.nci.nih.gov), the Drug Evaluation Branch, Bethesda, MD. All submitted compounds were nominated based on the degree of structural diversity and computer modelling techniques for evaluation of their anticancer activity. The screening process for antineoplastic activity passes through two successive levels, starting with the assessment of target compounds at a single dose of 10 μM against 60 cancer cell lines on nine types of human tumours. These experiments were done on a triplicate following. The output from the single‐dose screening was covered as a mean graph, and then, analysed by the COMPARE program. Finally, the compounds which disclosed subpanel cancer cell growth (G %) equal to or less than 10% in at least eight cancer cell lines get to pass the assessment against the 60 cell lines at five doses (0.01–100 μM). By using GraphPad Prism version 9.0 (Graphpad Software Inc., La Jolla, CA), GI50, TGI, as well as LC50 dose‐response parameters were computed and presented for each compound (Supplementary information)[55–57].

NCI-H322M = experiment: NCI 60 antitumor screening (single dose); conditions: Homo sapiens; NCI-H322M (non-small cell lung cancer), single dose 10 μM; read-out: Growth inhibition percentage (GI %)
Experimental: as §1, §2

SK-OV-3 = experiment: NCI 60 antitumor screening (single dose); conditions: Homo sapiens; SK-OV-3 (ovarian cancer), single dose 10 μM; read-out: Growth inhibition percentage (GI %)
Experimental: as §1, §2

M14 = experiment: NCI 60 antitumor screening (single dose); conditions: Homo sapiens; M14 (melanoma), single dose 10 μM; read-out: Growth inhibition percentage (GI %)
Experimental: as §1, §2

HCC-2998 = experiment: NCI 60 antitumor screening (single dose); conditions: Homo sapiens; HCC-2998 (colon cancer), single dose 10 μM; read-out: Growth inhibition percentage (GI %)
Experimental: as §1, §2

A549/ATCC = experiment: NCI 60 antitumor screening (single dose); conditions: Homo sapiens; A549/ATCC (non-small cell lung cancer), single dose 10 μM; read-out: Growth inhibition percentage (GI %)
Experimental: as §1, §2

TK-10 = experiment: NCI 60 antitumor screening (single dose); conditions: Homo sapiens; TK-10 (renal cancer), single dose 10 μM; read-out: Growth inhibition percentage (GI %)
Experimental: as §1, §2

U251 = experiment: NCI 60 antitumor screening (single dose); conditions: Homo sapiens, U-251; U251 (CNS cancer), single dose 10 μM; read-out: Growth inhibition percentage (GI %)
Experimental: as §1, §2

OVCAR-5 = experiment: NCI 60 antitumor screening (single dose); conditions: Homo sapiens; OVCAR-5 (ovarian cancer), single dose 10 μM; read-out: Growth inhibition percentage (GI %)
Experimental: as §1, §2

NCI-H522 = experiment: NCI 60 antitumor screening (single dose); conditions: Homo sapiens; NCI-H522 (non-small cell lung cancer), single dose 10 μM; read-out: Growth inhibition percentage (GI %)
Experimental: as §1, §2

NCI-H226 = experiment: NCI 60 antitumor screening (single dose); conditions: Homo sapiens; NCI-H226 (non-small cell lung cancer), single dose 10 μM; read-out: Growth inhibition percentage (GI %)
Experimental: as §1, §2

MCF7 = experiment: NCI 60 antitumor screening (single dose); conditions: Homo sapiens; MCF7 (breast cancer), single dose 10 μM; read-out: Growth inhibition percentage (GI %)
Experimental: as §1, §2

OVCAR-8 = experiment: NCI 60 antitumor screening (single dose); conditions: Homo sapiens; OVCAR-8 (ovarian cancer), single dose 10 μM; read-out: Growth inhibition percentage (GI %)
Experimental: as §1, §2

OVCAR-4 = experiment: NCI 60 antitumor screening (single dose); conditions: Homo sapiens; OVCAR-4 (ovarian cancer), single dose 10 μM; read-out: Growth inhibition percentage (GI %)
Experimental: as §1, §2

PC-3 = experiment: NCI 60 antitumor screening (single dose); conditions: Homo sapiens; PC-3 (prostate cancer), single dose 10 μM; read-out: Growth inhibition percentage (GI %)
Experimental: as §1, §2

SNB-19 = experiment: NCI 60 antitumor screening (single dose); conditions: Homo sapiens; SNB-19 (CNS cancer), single dose 10 μM; read-out: Growth inhibition percentage (GI %)
Experimental: as §1, §2

HS 578T = experiment: NCI 60 antitumor screening (single dose); conditions: Homo sapiens; HS 578T (breast cancer), single dose 10 μM; read-out: Growth inhibition percentage (GI %)
Experimental: as §1, §2

CAKI-1 = experiment: NCI 60 antitumor screening (single dose); conditions: Homo sapiens; CAKI-1 (renal cancer), single dose 10 μM; read-out: Growth inhibition percentage (GI %)
Experimental: as §1, §2

NCI-H23 = experiment: NCI 60 antitumor screening (single dose); conditions: Homo sapiens; NCI-H23 (non-small cell lung cancer), single dose 10 μM; read-out: Growth inhibition percentage (GI %)
Experimental: as §1, §2

KM 12 = experiment: NCI 60 antitumor screening (single dose); conditions: Homo sapiens, KM12; KM 12 (colon cancer), single dose 10 μM; read-out: Growth inhibition percentage (GI %)
Experimental: as §1, §2

NCI/ADR-RES = experiment: NCI 60 antitumor screening (single dose / five doses); conditions: Homo sapiens; for inhibition at 10 µM: NCI/ADR-RES (ovarian cancer), single dose 10 μM, read-out: Growth inhibition percentage (GI %)
DU-145 = experiment: as above; conditions: Homo sapiens; for inhibition at 10 µM: DU-145 (prostate cancer), single dose 10 μM, read-out: Growth inhibition percentage (GI %)
BT-549 = experiment: as above; conditions: Homo sapiens; for inhibition at 10 µM: BT-549 (breast cancer), single dose 10 μM, read-out: Growth inhibition percentage (GI %)
HCT-116 = experiment: as above; conditions: Homo sapiens; for inhibition at 10 µM: HCT-116 (colon cancer), single dose 10 μM, read-out: Growth inhibition percentage (GI %)
LOX IMVI = experiment: as above; conditions: Homo sapiens; for inhibition at 10 µM: LOX IMVI (melanoma), single dose 10 μM, read-out: Growth inhibition percentage (GI %)
SNB-75 = experiment: as above; conditions: Homo sapiens; for inhibition at 10 µM: SNB-75 (CNS cancer), single dose 10 μM, read-out: Growth inhibition percentage (GI %)
T-47D = experiment: as above; conditions: Homo sapiens, T47D; for inhibition at 10 µM: T-47D (breast cancer), single dose 10 μM, read-out: Growth inhibition percentage (GI %)

SMILES | inhibition at 10 µM (HOP-62) | inhibition at 10 µM (NCI-H322M) | inhibition at 10 µM (SK-OV-3) | inhibition at 10 µM (M14) | inhibition at 10 µM (HCC-2998) | inhibition at 10 µM (A549/ATCC) | inhibition at 10 µM (TK-10) | inhibition at 10 µM (U251) | inhibition at 10 µM (OVCAR-5) | inhibition at 10 µM (NCI-H522) | inhibition at 10 µM (NCI-H226) | inhibition at 10 µM (MCF7) | inhibition at 10 µM (OVCAR-8) | inhibition at 10 µM (OVCAR-4) | inhibition at 10 µM (PC-3) | inhibition at 10 µM (SNB-19) | inhibition at 10 µM (HS 578T) | inhibition at 10 µM (CAKI-1) | inhibition at 10 µM (NCI-H23) | inhibition at 10 µM (KM 12) | further results
Clc1cccc(/C=N/Nc2nc(N/N=C/c3cccc(Cl)c3)nc(N3CCOCC3)n2)c1 [compound 6d, 2,4-Bis[(E)-2-[(3-chlorophenyl)methylidene]hydrazin-1-yl]-6-(morpholin-4-yl)-1,3,5-triazine] | -9.83% | 46.2% | -29.6% | 64.8% | 41% | 53.4% | -0.21% | 39.6% | 4.53% | 86.1% | 39.6% | 57% | 50.5% | 33.6% | 58.5% | 12.1% | 32.5% | 62.4% | 29.4% | 69.8% | inhibition at 10 µM (NCI/ADR-RES): 38.2%; GI50 (NCI/ADR-RES; NCI/ADR-RES, five doses (0.01–100 μM), read-out: GI50): 4.58 µM; inhibition at 10 µM (DU-145): 57.5%; GI50 (DU-145; DU-145, five doses (0.01–100 μM), read-out: GI50): 2.62 µM; inhibition at 10 µM (BT-549): 7.26%; GI50 (BT-549; BT-549, five doses (0.01–100 μM), read-out: GI50): 3.22 µM; inhibition at 10 µM (HCT-116): 77.2%; GI50 (HCT-116; HCT-116, five doses (0.01–100 μM), read-out: GI50): 1.27 µM; inhibition at 10 µM (LOX IMVI): 67.4%; GI50 (LOX IMVI; LOX IMVI, five doses (0.01–100 μM), read-out: GI50): 2.99 µM; inhibition at 10 µM (SNB-75): -2.64%; GI50 (SNB-75; SNB-75, five doses (0.01–100 μM), read-out: GI50): 3.33 µM; inhibition at 10 µM (T-47D): 31.5%; GI50 (T-47D; T-47D, five doses (0.01–100 μM), read-out: GI50): 3.54 µM
Fc1cccc(/C=N/Nc2nc(N/N=C/c3cccc(F)c3)nc(N3CCOCC3)n2)c1 [compound 6e, 2,4-Bis[(E)-2-[(3-Fluorophenyl)methylidene]hydrazin-1-yl]-6-(morpholin-4-yl)-1,3,5-triazine] | -5.63% | 3.82% | -17.7% | 100% | -2.3% | 6.5% | -28.1% | 23.8% | -3.81% | 4.23% | 5.56% | 19.3% | 8.56% | 0.54% | 24.5% | 1.85% | -0.4% | 11.3% | -1.55% | 0.3% | inhibition at 10 µM (NCI/ADR-RES): 8.29%; inhibition at 10 µM (DU-145): 40.5%; inhibition at 10 µM (BT-549): 11.6%; inhibition at 10 µM (HCT-116): 24.6%; inhibition at 10 µM (LOX IMVI): 0.67%; inhibition at 10 µM (SNB-75): 18.3%; inhibition at 10 µM (T-47D): 10.3%

Reference: PMC9848300, “Discovery of novel enasidenib analogues targeting inhibition of mutant isocitrate dehydrogenase 2 as antileukaemic agents” (Journal of Enzyme Inhibition and Medicinal Chemistry, 2023)
